According to patent US20230210853A1 (Halia Therapeutics, Inc., priority 2020, published 2023):

target: T1, full-length recombinant human NEK7 (Homo sapiens, UniProt Q8TDX7); assay: NEK7 enzymatic assay ([33P]-ATP, casein substrate); type: biochemical; details: Table 2b; recombinant human NEK7, casein substrate
T1 construct: full-length recombinant human NEK7; GST (N); purchased SignalChem N09-10G; host or cells: Sf9 insect cells (baculovirus)
Procedure: In some embodiments, the IC50 of the compounds of Structure (I), (Ia), (Ib), (Ic), (Id), (Ie), or (If) to inhibit NEK7 was determined by the concentration of the compound required to inhibit 50% of the activity of the NEK kinase.
(§1) Casein substrate (from bovine milk, hydrolyzed and partially dephosphorylated mixture of α, β and κ caseins, obtained from Sigma Aldrich, catalogue #C4765, diluted in distilled water to a final concentration of 1 mg/mL) and full-length recombinant human NEK7 (expressed by baculovirus in Sf9 insect cells using a N-terminal GST tag, obtained from SignalChem, catalogue #N09-10G, 0.1 μg/μL) were mixed in assay buffer (20 mM Hepes pH 7.5, 10 mM MgCl2, 1 mM EGTA, 0.02% Brij35, 0.02 mg/ml BSA, 0.1 mM Na3 VO4, 2 mM DTT, 1% DMSO). Compounds of interest (serial 3-fold dilution in DMSO from 10 μM to 0.5 nM) or vehicle (1% DMSO) were dispensed into the kinase reaction mixture by Acoustic technology (Echo550, nanoliter range). After incubation at room temperature for 20 minutes, the kinase reaction was initiated by addition of [^33P]-ATP (specific activity 10 μCi/μl) and the mixture was incubated at room temperature for 2 hours. The reaction was then stopped by spotting the reaction mixture on strips of phosphocellulose P81 paper. Following washing, the radioactivity of the P81 paper was measured and kinase activity data were expressed as the percent remaining kinase activity in test samples compared to vehicle reactions. IC50 values and curve fits were obtained using Prism (GraphPad Software).
as §1, with “μg/L)” for “μg/μL)”, “Na3VO4,” for “Na3 VO4,”, “(Echo550;” for “(Echo550,”

T1 sequence (Q8TDX7 whole entry): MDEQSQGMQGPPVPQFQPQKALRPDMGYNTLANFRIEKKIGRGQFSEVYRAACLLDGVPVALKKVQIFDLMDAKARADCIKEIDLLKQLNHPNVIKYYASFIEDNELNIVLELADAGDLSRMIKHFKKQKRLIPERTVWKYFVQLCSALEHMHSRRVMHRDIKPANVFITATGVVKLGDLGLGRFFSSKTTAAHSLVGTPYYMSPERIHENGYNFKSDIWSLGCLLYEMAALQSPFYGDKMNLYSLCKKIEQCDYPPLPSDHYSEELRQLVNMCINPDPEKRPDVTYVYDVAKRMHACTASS

SMILES | IC50 [nM]
CC(C)(C)c1cc(NC(=O)NC2CCC(Oc3ccnc4[nH]ccc34)CC2)n(-c2ccccc2)n1 (stereo not drawn) [Ib-16, 1-(4-((1H-pyrrolo[2,3-b]pyridin-4-yl)oxy)cyclohexyl)-3-(3-(tert-butyl)-1-phenyl-1H-pyrazol-5-yl)urea] | > 1500
O=C(Nc1ccc(Oc2ccnc3[nH]cc(Cl)c23)cc1F)Nc1cc(C2(C(F)(F)F)CC2)nn1-c1ccccc1 [Ib-17, 1-(4-((3-chloro-1H-pyrrolo[2,3-b]pyridin-4-yl)oxy)-2-fluorophenyl)-3-(1-phenyl-3-(1-(trifluoromethyl)cyclopropyl)-1H-pyrazol-5-yl)urea] | > 1500
Cc1nc2c(Oc3ccc(NC(=O)Nc4cc(C(C)(C)C)nn4-c4ccccc4)c(F)c3)ccnc2[nH]1 [Ib-19, 1-(3-(tert-butyl)-1-phenyl-1H-pyrazol-5-yl)-3-(2-fluoro-4-((2-methyl-3H-imidazo[4,5-b]pyridin-7-yl)oxy)phenyl)urea] | > 1500
CC(C)(C)c1cc(NC(=O)NC2CCC(Oc3ccnc4[nH]cc(Cl)c34)CC2)n(-c2ccccc2)n1 (stereo not drawn) [Ib-20, 1-(3-(tert-butyl)-1-phenyl-1H-pyrazol-5-yl)-3-(4-((3-chloro-1H-pyrrolo[2,3-b]pyridin-4-yl)oxy)cyclohexyl)urea] | > 1500
CN1CCC(n2nc(C(C)(C)C)cc2NC(=O)Nc2ccc(Oc3ccnc4[nH]cc(Cl)c34)cc2F)CC1 [Ib-21, 1-(3-(tert-butyl)-1-(1-methylpiperidin-4-yl)-1H-pyrazol-5-yl)-3-(4-((3-chloro-1H-pyrrolo[2,3-?]pyridin-4-yl)oxy)-2-fluorophenyl)urea] | > 1500
CC(C)(C)c1cc(NC(=O)Cc2ccc(Oc3ccnc4[nH]cc(Cl)c34)cc2F)n(-c2ccccc2)n1 [Ib-22, N-(3-(tert-butyl)-1-phenyl-1H-pyrazol-5-yl)-2-(4-((3-chloro-1H-pyrrolo[2,3-b]pyridin-4-yl)oxy)-2-fluorophenyl)acetamide] | > 1500

same assay, conditions: Table 2d; recombinant human NEK7, casein substrate

SMILES | IC50 [nM]
Cc1cc(NC(=O)Nc2ccc(-c3nn(C(C)C)c4ncnc(N)c34)cc2)ccc1N1CCOCC1 [Id-1, 1-(4-(4-amino-1-isopropyl-1H-pyrazolo[3,4-J]pyrimidin-3-yl)phenyl)-3-(3-methyl-4-morpholinophenyl)urea] | > 1500
CCN1CCN(Cc2ccc(NC(=O)Nc3ccc(-c4nn(C5CC5)c5ncnc(N)c45)cc3F)cc2C(F)(F)F)CC1 [Id-7, 1-(4-(4-amino-t-cyclopropyl-1H-pyrazolo[3,4-d]pyrimidin-3-yl)-2-fluorophenyl)-3-(4-((4-ethylpiperazin-1-yl)methyl)-3-(trifluoromethyl)phenyl)urea] | > 1500
Cc1cn(-c2ccc(NC(=O)Nc3ccc(-c4cn(C5CC5)c5ncnc(N)c45)cc3F)cc2C(F)(F)F)cn1 [Id-23] | > 1500
Nc1ncnc2c1c(-c1ccc(NC(=O)Nc3ccc(CN4CCOCC4)cc3F)c(F)c1)nn2C1CC1 [Id-26, 1-(4-(4-amino-1-cyclopropyl-1H-pyrazolo[3,4-d]pyrimidin-3-yl)-2-fluorophenyl)-3-(2-fluoro-4-(morpholinomethyl)phenyl)urea] | > 1500
CN1CCN(Cc2ccc(NC(=O)Nc3ccc(-c4nn(C5CC5)c5ncnc(N)c45)cn3)cc2C(F)(F)F)CC1 [Id-29, 1-(5-(4-amino-1-cyclopropyl-1H-pyrazolo[3,4-d]pyrimidin-3-yl)pyridin-2-yl)-3-(4-((4-methylpiperazin-1-yl)methyl)-3-(trifluoromethyl)phenyl)urea] | 151 to 300
Cc1cc(NC(=O)Nc2ccc(-c3cn(C4CC4)c4ncnc(N)c34)cc2F)ccc1N1CCOCC1 [Id-32, 1-(4-(4-amino-7-cyclopropyl-7H-pyrrolo[2,3-d]pyrimidin-5-yl)-2-fluorophenyl)-3-(3-methyl-4-morpholinophenyl)urea] | > 1500
CN1CCN(Cc2ccc(NC(=O)Nc3ccc(-c4cn(C5CC5)c5ncnc(N)c45)cc3Cl)cc2C(F)(F)F)CC1 [Id-34, 1-(4-(4-amino-7-cyclopropyl-7H-pyrrolo[2,3-d]pyrimidin-5-yl)-2-chlorophenyl)-3-(4-((4-methylpiperazin-1-yl)methyl)-3-(trifluoromethyl)phenyl)urea] | 151 to 300
CN1CCN(Cc2ccc(NC(=O)Nc3ccc(-c4cn(C5CC5)c5ncnc(N)c45)cc3F)cc2F)CC1 [Id-35, 1-(4-(4-amino-7-cyclopropyl-7H-pyrrolo[2,3-d]pyrimidin-5-yl)-2-fluorophenyl)-3-(3-fluoro-4-((4-methylpiperazin-1-yl)methyl)phenyl)urea] | 301 to 500
CN1CCN(Cc2ccc(NC(=O)Nc3ccc(-c4cn(C5CC5)c5ncnc(N)c45)cc3F)cc2Cl)CC1 [Id-36, 1-(4-(4-amino-7-cyclopropyl-7H-pyrrolo[2,3-d]pyrimidin-5-yl)-2-fluorophenyl)-3-(3-chloro-4-((4-methylpiperazin-1-yl)methyl)phenyl)urea] | < 150
COc1cc(NC(=O)Nc2ccc(-c3cn(C4CC4)c4ncnc(N)c34)cc2F)ccc1CN1CCN(C)CC1 [Id-37, 1-(4-(4-amino-7-cyclopropyl-7H-pyrrolo[2,3-d]pyrimidin-5-yl)-2-fluorophenyl)-3-(3-methoxy-4-((4-methylpiperazin-1-yl)methyl)phenyl)urea] | > 1500
CCN1CCN(Cc2ccc(NC(=O)Nc3ccc(-c4cn(C5CC5)c5ncnc(N)c45)cc3F)cc2C(F)(F)F)CC1 [Id-40, 1-(4-(4-amino-7-cyclopropyl-7H-pyrrolo[2,3-d]pyrimidin-5-yl)-2-fluorophenyl)-3-(4-((4-ethylpiperazin-1-yl)methyl)-3-(trifluoromethyl)phenyl)urea] | < 150
Nc1ncnc2c1c(-c1ccc(NC(=O)Nc3ccc(CN4CCN(CCO)CC4)c(C(F)(F)F)c3)c(F)c1)cn2C1CC1 [Id-41, 1-(4-(4-amino-7-cyclopropyl-7H-pyrrolo[2,3-d]pyrimidin-5-yl)-2-fluorophenyl)-3-(4-((4-(2-hydroxyethyl)piperazin-1-yl)methyl)-3-(trifluoromethyl)phenyl)urea] | < 150
COCCN1CCN(Cc2ccc(NC(=O)Nc3ccc(-c4cn(C5CC5)c5ncnc(N)c45)cc3F)cc2C(F)(F)F)CC1 [Id-42, 1-(4-(4-amino-7-cyclopropyl-7H-pyrrolo[2,3-d]pyrimidin-5-yl)-2-fluorophenyl)-3-(4-((4-(2-methoxyethyl)piperazin-1-yl)methyl)-3-(trifluoromethyl)phenyl)urea] | < 150
CN1CCCN(Cc2ccc(NC(=O)Nc3ccc(-c4cn(C5CC5)c5ncnc(N)c45)cc3F)cc2C(F)(F)F)CC1 [Id-43, 1-(4-(4-amino-7-cyclopropyl-7H-pyrrolo[2,3-d]pyrimidin-5-yl)-2-fluorophenyl)-3-(4-((4-methyl-1,4-diazepan-1-yl)methyl)-3-(trifluoromethyl)phenyl)urea] | < 150
CN(C)C1CCN(Cc2ccc(NC(=O)Nc3ccc(-c4cn(C5CC5)c5ncnc(N)c45)cc3F)cc2C(F)(F)F)C1 (stereo not drawn) [Id-44, 1-(4-(4-amino-7-cyclopropyl-7H-pyrrolo[2,3-d]pyrimidin-5-yl)-2-fluorophenyl)-3-(4-((3-(dimethylamino)pyrrolidin-1-yl)methyl)-3-(trifluoromethyl)phenyl)urea] | < 150
Cc1cn(-c2ccc(NC(=O)Nc3ccc(-c4cn(C5CC5)c5ncnc(N)c45)cc3F)cc2C(F)(F)F)cn1 [Id-45, 1-(4-(4-amino-7-cyclopropyl-7H-pyrrolo[2,3-d]pyrimidin-5-yl)-2-fluorophenyl)-3-(4-(4-methyl-1H-imidazol-1-yl)-3-(trifluoromethyl)phenyl)urea] | 501 to 1500
CN1CCC(Oc2ccc(NC(=O)Nc3ccc(-c4cn(C5CC5)c5ncnc(N)c45)cc3F)cc2C(F)(F)F)CC1 [Id-46, 1-(4-(4-amino-7-cyclopropyl-7H-pyrrolo[2,3-d]pyrimidin-5-yl)-2-fluorophenyl)-3-(4-((1-methylpiperidin-4-yl)oxy)-3-(trifluoromethyl)phenyl)urea] | < 150
Nc1ncnc2c1c(-c1ccc(NC(=O)Nc3ccc(CN4CCOCC4)c(F)c3)c(F)c1)nn2C1CC1 [Id-47, 1-(4-(4-amino-1-cyclopropyl-1H-pyrazolo[3,4-d]pyrimidin-3-yl)-2-fluorophenyl)-3-(3-fluoro-4-(morpholinomethyl)phenyl)urea] | > 1500
